Assay results: PubChem BioAssay (NCI)
“And” between values parts separate entries of the source, which are not always exact repeats. Identical values can stand only once.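 All cell lines were grown in 96-well plates and treated with compound for 48 hours. Here, GI50 denotes the concentration required for 50% inhibition of growth. TGI denotes the concentration required for complete inhibition of growth.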

What was measured:
Assay in all cases: NCI anticancer screen, dose series, 48 h
T-47D breast = tested on: T-47D breast
HOP-92 NSCLC = tested on: HOP-92 NSCLC
MDA-MB-435 = tested on: MDA-MB-435
IGROV1 ovarian = tested on: IGROV1 ovarian
ACHN renal = tested on: ACHN renal
UO-31 renal = tested on: UO-31 renal
NCI-H522 lung = tested on: NCI-H522 lung
NCI-H226 lung = tested on: NCI-H226 lung
A549 NSCLC = tested on: A549 NSCLC
HOP-62 NSCLC = tested on: HOP-62 NSCLC

Compound	GI50 (T-47D breast)	TGI (T-47D breast)	GI50 (HOP-92 NSCLC)	TGI (HOP-92 NSCLC)	GI50 (MDA-MB-435)	TGI (MDA-MB-435)	GI50 (IGROV1 ovarian)	TGI (IGROV1 ovarian)	GI50 (ACHN renal)	TGI (ACHN renal)	GI50 (UO-31 renal)	TGI (UO-31 renal)	GI50 (NCI-H522 lung)	TGI (NCI-H522 lung)	GI50 (NCI-H226 lung)	TGI (NCI-H226 lung)	GI50 (A549 NSCLC)	TGI (A549 NSCLC)	GI50 (HOP-62 NSCLC)	TGI (HOP-62 NSCLC)
CCC(=O)Nc1nnc(Cc2ccc(OC)c(OC)c2)s1	> 100 µM	> 100 µM	78.7 µM	> 100 µM	> 100 µM	> 100 µM	> 100 µM	> 100 µM	> 100 µM	> 100 µM	> 100 µM	> 100 µM	> 100 µM	> 100 µM	> 100 µM	> 100 µM	> 100 µM	> 100 µM	> 100 µM	> 100 µM
Cc1ccc(-c2nc3sc(C)cn3c2/C=C2\C(=O)Nc3ccc(Cl)cc32)cc1	42.2 µM	> 100 µM	7.66 µM	25.1 µM	18 µM	34.8 µM	12.6 µM	27.6 µM	4.27 µM	16 µM	28.1 µM	> 100 µM	15.5 µM	30.1 µM	22.9 µM	> 100 µM	14.1 µM	27.8 µM	7.21 µM	20.8 µM
COc1cc(C(=O)n2nc(N)c3c(C)cc(C)nc32)cc(OC)c1OC	> 65.4 µM	> 100 µM	> 100 µM	> 100 µM	0.325 µM	6.01 µM	> 100 µM	> 100 µM	> 100 µM	> 100 µM	> 100 µM	> 100 µM	10.8 µM	> 100 µM	> 100 µM	> 100 µM	41.5 µM	> 100 µM	40.8 µM	> 100 µM
CNc1cc(-c2cccc(OC(F)(F)F)c2)nc2ccc(N3CCCC3)cc12	1.59 µM and 1.76 µM	3.51 µM and 3.47 µM	1.22 µM and 1.3 µM and 1.24 µM	2.55 µM and 2.64 µM and 2.58 µM	1.59 µM and 1.71 µM and 1.63 µM	2.97 µM and 3.19 µM and 3.09 µM	1.57 µM and 1.74 µM and 1.72 µM	3.08 µM and 3.39 µM and 3.25 µM	1.61 µM and 1.63 µM and 1.74 µM	2.96 µM and 2.98 µM and 3.12 µM	1.36 µM and 1.32 µM and 1.42 µM	2.67 µM and 2.61 µM and 2.74 µM	1.68 µM and 1.65 µM and 1.76 µM	3.33 µM and 3.25 µM and 3.43 µM	2.49 µM and 1.88 µM	4.58 µM and 3.77 µM	1.79 µM and 1.66 µM and 1.75 µM	3.26 µM and 3.03 µM and 3.27 µM	1.62 µM and 1.69 µM and 1.72 µM	3.11 µM and 3.16 µM
COc1cc(C2NC(=O)C(C#N)=C(Nc3cccc(C)c3)S2)ccc1O (stereo not drawn)	> 100 µM	> 100 µM	> 100 µM	> 100 µM	> 100 µM	> 100 µM	> 100 µM	> 100 µM	> 100 µM	> 100 µM	> 100 µM	> 100 µM	> 100 µM	> 100 µM	> 100 µM	> 100 µM	> 100 µM	> 100 µM	> 100 µM	> 100 µM
C=C(C)C(=O)Nc1ccc(-c2c(-c3ccc(Oc4nccc(C)n4)c(F)c3)c3c(N)ncnc3n2C)cc1	2.97 µM	35.5 µM	2.83 µM	32.3 µM	7.19 µM	21.3 µM	3.1 µM	17.4 µM	3.81 µM	20.2 µM	1.18 µM	2.98 µM	3.57 µM	16.1 µM	0.812 µM	7.46 µM	3.6 µM	18.5 µM	4.69 µM	20 µM
Cn1c(I)c(C#C[Si](C)(C)C)c(=O)[nH]c1=O	2.54 µM	8 µM	1.08 µM	2.53 µM	3.1 µM	11.5 µM	1.9 µM	3.63 µM	1.61 µM	3.01 µM	16.8 µM	32.4 µM	1.68 µM	3.18 µM	12.7 µM	25.3 µM	21.5 µM	38.1 µM	17.6 µM	32.4 µM
COc1ccc2c(c1)-c1c(c3cc(OC)ccc3n(CCN(C)C)c1=O)C2=O	3.23 µM	11.4 µM	2.65 µM	50 µM	0.95 µM	5.73 µM	0.243 µM	2.31 µM	0.352 µM	7.07 µM	0.127 µM	1.23 µM	0.0843 µM	0.59 µM	0.665 µM	10.4 µM	0.388 µM	2.97 µM	0.676 µM	12.1 µM
CNC(=O)c1cc(Oc2ccc(NC(=O)Nc3cc(C(C)(C)C)nn3-c3ccc4ncccc4c3)c(F)c2)ccn1	0.907 µM and 1.79 µM	7.17 µM and > 29.3 µM	0.46 µM and 0.446 µM	4.85 µM and 4.6 µM	0.587 µM and 0.387 µM	3.87 µM and 1.75 µM	0.712 µM and 1.26 µM	6.61 µM and 6.8 µM	0.915 µM and 0.475 µM	7.47 µM and > 23.6 µM	1.62 µM and 1.78 µM	7.7 µM and 6.39 µM	1.78 µM and 2.2 µM	4.91 µM and 5.31 µM	0.272 µM and 0.822 µM	7.24 µM and 4.26 µM	1.83 µM and 1.8 µM	7.72 µM and 6.5 µM	2.24 µM and 2.2 µM	7.56 µM and 7.34 µM
CC1(C)C(=O)/C=C\C(=O)C(C)(C)C(=O)/C=C\C(=O)C(C)(C)C2=CC=C(O2)C(C)(C)C(=O)/C=C\C1=O		18.5 µM		3.9 µM		29.3 µM		24.9 µM		12.6 µM		28.3 µM		2.22 µM		18.1 µM		49.7 µM		44.7 µM
Cc1c(C(N)=O)sc2nc(C)n(/N=c3\scc(-c4ccccc4)n3Cc3ccccc3)c(=O)c12	3.25 µM	> 100 µM	1.34 µM	5.33 µM	2.89 µM	12.5 µM	1.43 µM	6.31 µM	2.86 µM	> 100 µM	1.66 µM	7 µM	1.73 µM	7.23 µM	3.72 µM	67.9 µM	3.79 µM	> 100 µM	2.82 µM	9.47 µM
Fc1ccc(Nc2nc(Nc3ccc(-c4nc5ccccc5[nH]4)cc3)c3cn[nH]c3n2)cc1	1.9 µM	5 µM	1.5 µM	3.19 µM	1.71 µM	3.23 µM	1.75 µM	3.84 µM	2.05 µM	5.08 µM	1.62 µM	4.32 µM	1.61 µM	4.02 µM	2.62 µM	7.07 µM	2.75 µM	6.78 µM	2.04 µM	5.02 µM
Clc1ccc(-c2nc(NCc3ccco3)c3ccccc3n2)c(Cl)c1	45.6 µM	> 100 µM	4.94 µM	74.7 µM	16.1 µM	33.7 µM	22.2 µM	> 100 µM	7.81 µM	58.3 µM	26.8 µM	> 100 µM	33.7 µM	> 100 µM	20.7 µM	> 100 µM	20.1 µM	49.1 µM	15.8 µM	34.7 µM
COc1cc(C(=O)O[C@H](C(=O)NCCCCNC(=O)[C@@H](OC(=O)c2cc(OC)cc3c(C)cccc23)[C@]2(C)CO2)[C@]2(C)CO2)c2cccc(C)c2c1	0.253 µM	1.74 µM	0.0452 µM	0.22 µM	0.144 µM	0.61 µM		0.944 µM	< 0.01 µM	< 0.01 µM	0.466 µM	> 100 µM	0.0207 µM	10.9 µM	0.62 µM	2.07 µM	0.26 µM	0.699 µM		0.892 µM
C[C@]12CCC(=O)C[C@@H]1CC[C@@H]1[C@@H]2CC[C@]2(C)[C@@H](OC(=O)N(CCCl)N=O)CC[C@@H]12	2.91 µM	30 µM	0.179 µM	11.1 µM	1.07 µM	18.1 µM	1.47 µM	12.8 µM	0.321 µM	11.7 µM	1.11 µM	10.5 µM	2.48 µM	20.4 µM	11.9 µM	30.4 µM	0.353 µM	11.6 µM	1.75 µM	14.1 µM
CSc1nc(SC)c2c(C)cn(COCCOC(=O)c3ccccc3)c2n1		94.5 µM		99.7 µM		> 100 µM		> 100 µM		> 100 µM		> 100 µM		> 100 µM		> 100 µM		> 100 µM		> 100 µM
CCOC(=O)/C=C1/SC(=Nc2ccc(C#N)cc2)N(Cc2ccco2)C1=O	2.57 µM	8.24 µM	4.51 µM	22.9 µM	3.44 µM	15.8 µM	3.22 µM	20.2 µM	1.78 µM	3.33 µM	1.45 µM	2.86 µM	1.83 µM	4.12 µM	2.22 µM	4.76 µM	10.4 µM	26.1 µM	2.94 µM	9.21 µM
COC(=O)c1cc2cc(/C=C3/SC(=S)N(N(C(C)=O)C(C)=O)C3=O)oc2n1Cc1ccccc1	> 100 µM	> 100 µM	44 µM	> 100 µM	29 µM	> 100 µM	22.4 µM	57.3 µM	18.3 µM	35.9 µM	29.7 µM	> 100 µM	19.1 µM	48.6 µM	21.9 µM	45.2 µM	18.1 µM	45.9 µM	2.67 µM	14.1 µM
